# Source: patent US20260166159A1, “KRAS G12D DEGRADATION AGENT, AND PREPARATION METHOD AND USE THEREFOR” (LEADINGTAC PHARMACEUTICAL (SHAOXING) CO., LTD., priority 2022, published 2026)
# What was measured:
# [1] = tested on: phosphorylated ERK; experiment: KRAS G12D-mediated phosphorylated ERK inhibition assay (AlphaLISA), A427; assay type: cell-based; conditions: Homo sapiens, A-427; A427 cells; class symbols; read-out: pERK (A427) IC50
# Experimental: The relative amounts of phosphorylated ERK and total ERK in the samples were separately determined according to the test methods provided in the instructions of the AlphaLISA SureFire Ultra p-ERK 1/2 (Thr202/Tyr204) kit (PerkinElmer) and the AlphaLISA SureFire Ultra TotalERK 1/2 kit (PerkinElmer).
# The experimental procedures for the assay of the phosphorylated ERK and total ERK were as follows: 10 μL of each sample was added to a 384-well plate (Greiner), and 5 μL of the prepared Acceptor Beads (PerkinElmer) mixed solution (containing 50× Acceptor Beads 615, Activation Buffer, and equal volumes of Reaction Buffer 1 and Reaction Buffer 2) was added to each well; and the plate was incubated at room temperature for 2 h. Then 5 μL of 1× Donor Beads (PerkinElmer) diluted with Dilution Buffer was added to each well, and the plate was incubated at room temperature overnight. After the incubation was completed, AlphaLISA signal values for the phosphorylated ERK and total ERK were separately measured on an EnVision microplate reader (PerkinElmer) in the AlphaScreen standard mode. The following formula was adopted: phosphorylated ERK correction value=phosphorylated ERK AlphaLISA signal value/total ERK AlphaLISA signal value. The relative ratio of the phosphorylated ERK for each sample was calculated. The percentage inhibition rates of the compounds on the phosphorylated ERK at each concentration were calculated by comparing the relative value of the phosphorylated ERK with that of the DMSO control well. Then non-linear curve fittings for logarithmic concentration-inhibition rate were performed by the GraphPad Prism 8 analysis software, and the IC50 values of the compounds on the inhibition of the phosphorylated ERK were obtained (Table 2).
# [2] = tested on: KRAS G12D mutant human gastric cancer cell AGS; experiment: 3D cell proliferation inhibition assay, AGS; assay type: cell-based; conditions: 168 h, 7 days, CTG
# Method in brief: (§1)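 IC50 values derive from nonlinear fits of log dose against percent inhibition of 7-day 3D proliferation. Readout: CTG luminescence. Plating density: 5×10^2 cells/well in low-adsorption plates. Dosing: 10000–0.026 nM final, 0.2% DMSO.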
# [3] = tested on: KRAS G12D mutant human lung cancer cell A427; experiment: 3D cell proliferation inhibition assay, A427; assay type: cell-based; conditions: A-427, 168 h, A427, 7 days, CTG
# Method in brief: as §1
# [4] = target: T1, Human KRAS G12D 6His-tagged (Homo sapiens, UniProt P01116, G12D); experiment: KRAS-G12D/GTP binding assay (HTRF)
# T1 construct: purchased PerkinElmer
# T1 sequence (P01116 1-188 isoform P01116-2 G12D): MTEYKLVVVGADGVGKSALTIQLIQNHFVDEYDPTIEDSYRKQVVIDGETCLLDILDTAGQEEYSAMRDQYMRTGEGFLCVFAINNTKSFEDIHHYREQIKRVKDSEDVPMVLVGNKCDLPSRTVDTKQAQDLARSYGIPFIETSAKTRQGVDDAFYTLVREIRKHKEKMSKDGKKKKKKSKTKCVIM
# Method in brief: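 HTRF kit format: 6His-tagged KRAS G12D incubated with compound (final 0.02-5000 nM, 0.5% DMSO), anti-6His Eu cryptate antibody and GTP Red reagent for 1 h at 25° C. 665/620 nm ratio versus control gave inhibition rates; IC50 by nonlinear fit.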
SMILES,IC50 [1] [µM],IC50 ([2]; class symbols) [µM],IC50 ([3]; class symbols) [µM],IC50 ([4]; class symbols) [µM],IC50 ([2]; numeric values) [µM],IC50 ([3]; numeric values) [µM],IC50 ([4]; numeric values) [µM]
"CCc1cccc2cc(O)cc(-c3ncc4c(N5CC6CCC(C5)N6)nc(OCC5(CN6CCN(CCCC7CCN(C(=O)c8ccc(Cl)c(N9CCC(=O)NC9=O)c8)CC7)CC6)CC5)nc4c3F)c12 [Example 19, 1-(5-(4-(3-(4-((1-(((4-(3,8-diazabicyclo[3.2.1]octan-3-yl)-7-(8-ethyl-3-hydroxynaphthalen-1-yl)-8-fluoropyrido[4,3-d]pyrimidin-2-yl)oxy)methyl)cyclopropyl)methyl)piperazin-1-yl)propyl)piperidine-1-carbonyl)-2-chlorophenyl)dihydropyrimidine-2,4(1H,3H)-dione]",≤ 0.05,≤ 0.05,0.1 to 0.5,≤ 0.05,–,–,–
"C#Cc1c(F)ccc2cc(O)cc(-c3ncc4c(N5CC6CCC(C5)N6)nc(OCC5(CN6CCN(CC7CCC8(CC7)CCN(C(=O)c7ccc(OC)c(N9CCC(=O)NC9=O)c7)CC8)CC6)CC5)nc4c3F)c12 [Example 14, 1-(5-(9-((4-((1-(((4-(3,8-diazabicyclo[3.2.1]octan-3-yl)-7-(8-ethynyl-7-fluoro-3-hydroxynaphthalen-1-yl)-8-fluoropyrido[4,3-d]pyrimidin-2-yl)oxy)methyl)cyclopropyl)methyl)piperazin-1-yl)methyl)-3-azaspiro[5.5]undecane-3-carbonyl)-2-methoxyphenyl)dihydropyrimidine-2,4(1H,3H)-dione]",≤ 0.05,≤ 0.05,≤ 0.05,≤ 0.05,–,–,–
"C#Cc1c(F)ccc2cc(O)cc(-c3ncc4c(N5CC6CCC(C5)N6)nc(OCC5(CN6CCN(CCCC7CCN(C(=O)c8ccc(Cl)c(N9CCC(=O)NC9=O)c8)CC7)CC6)CCC5)nc4c3F)c12 [Example 24, 1-(5-(4-(3-(4-((1-(((4-(3,8-diazabicyclo[3.2.1]octan-3-yl)-7-(8-ethynyl-7-fluoro-3-hydroxynaphthalen-1-yl)-8-fluoropyrido[4,3-d]pyrimidin-2-yl)oxy)methyl)cyclobutyl)methyl)piperazin-1-yl)propyl)piperidine-1-carbonyl)-2-chlorophenyl)dihydropyrimidine-2,4(1H,3H)-dione]",≤ 0.05,0.05 to 0.1,0.1 to 0.5,≤ 0.05,–,–,–
"C#Cc1c(F)ccc2cc(O)cc(-c3ncc4c(N5CC6CCC(C5)N6)nc(OCC5(CN6CCN(CCC7CCC8(CC7)CCN(C(=O)c7ccc(Cl)c(N9CCC(=O)NC9=O)c7)CC8)CC6)CC5)nc4c3F)c12 [Example 18, 1-(5-(9-(2-(4-((1-(((4-(3,8-diazabicyclo[3.2.1]octan-3-yl)-7-(8-ethynyl-7-fluoro-3-hydroxynaphthalen-1-yl)-8-fluoropyrido[4,3-d]pyrimidin-2-yl)oxy)methyl)cyclopropyl)methyl)piperazin-1-yl)ethyl)-3-azaspiro[5.5]undecane-3-carbonyl)-2-chlorophenyl)dihydropyrimidine-2,4(1H,3H)-dione]",≤ 0.05,≤ 0.05,≤ 0.05,≤ 0.05,–,–,–
"Cc1ccc2[nH]ncc2c1-c1ncc2c(N3CC4CCC(C3)N4)nc(OCC3(CN4CCN(CC5CCC6(CC5)CCN(C(=O)c5ccc(Cl)c(N7CCC(=O)NC7=O)c5)CC6)CC4)CC3)nc2c1F [Example 16, 1-(5-(9-((4-((1-(((4-(3,8-diazabicyclo[3.2.1]octan-3-yl)-8-fluoro-7-(5-methyl-1H-indazol-4-yl)pyrido[4,3-d]pyrimidin-2-yl)oxy)methyl)cyclopropyl)methyl)piperazin-1-yl)methyl)-3-azaspiro[5.5]undecane-3-carbonyl)-2-chlorophenyl)dihydropyrimidine-2,4(1H,3H)-dione]",1 to 10,1 to 10,0.1 to 0.5,1 to 10,–,–,–
"C#Cc1c(F)ccc2cc(O)cc(-c3ncc4c(N5CC6CCC(C5)N6)nc(OCC5(CN6CCN(CCCCC7CCN(C(=O)c8ccc(Cl)c(N9CCC(=O)NC9=O)c8)CC7)CC6)CC5)nc4c3F)c12 [Example 5, 1-(5-(4-(4-(4-((1-(((4-(3,8-diazabicyclo[3.2.1]octan-3-yl)-7-(8-ethynyl-7-fluoro-3-hydroxynaphthalen-1-yl)-8-fluoropyrido[4,3-d]pyrimidin-2-yl)oxy)methyl)cyclopropyl)methyl)piperazin-1-yl)butyl)piperidine-1-carbonyl)-2-chlorophenyl)dihydropyrimidine-2,4(1H,3H)-dione]",≤ 0.05,≤ 0.05,0.05 to 0.1,≤ 0.05,–,–,–
"C#Cc1c(F)ccc2cc(O)cc(-c3ncc4c(N5CC6CCC(C5)N6)nc(OCC5(CN6CCN(CCCC7CCN(C(=O)c8ccc(Cl)c(N9CCC(=O)NC9=O)c8)CC7)CC6)CC5)nc4c3F)c12 [Example 4, 1-(5-(4-(3-(4-((1-(((4-(3,8-diazabicyclo[3.2.1]octan-3-yl)-7-(8-ethynyl-7-fluoro-3-hydroxynaphthalen-1-yl)-8-fluoropyrido[4,3-d]pyrimidin-2-yl)oxy)methyl)cyclopropyl)methyl)piperazin-1-yl)propyl)piperidine-1-carbonyl)-2-chlorophenyl)dihydropyrimidine-2,4(1H,3H)-dione]",≤ 0.05,0.05 to 0.1,0.1 to 0.5,≤ 0.05,–,–,–
"C#Cc1c(F)ccc2cc(O)cc(-c3ccc4c(N5CC6CCC(C5)N6)nc(OCC5(CN6CCN(CC7CCC8(CC7)CCN(C(=O)c7ccc(C)c(N9CCC(=O)NC9=O)c7)CC8)CC6)CC5)nc4c3F)c12 [Example 42, 1-(5-(9-((4-((1-(((4-(3,8-diazabicyclo[3.2.1]octan-3-yl)-7-(8-ethynyl-7-fluoro-3-hydroxynaphthalen-1-yl)-8-fluoroquinazolin-2-yl)oxy)methyl)cyclopropyl)methyl)piperazin-1-yl)methyl)-3-azaspiro[5.5]undecane-3-carbonyl)-2-methylphenyl)dihydropyrimidine-2,4(1H,3H)-dione]",–,≤ 0.05,≤ 0.05,≤ 0.05,–,–,–
"C#Cc1cccc2cc(O)cc(-c3ncc4c(N5CC6CCC(C5)N6)nc(OCC5(CN6CCN(CC7CCC8(CC7)CCN(C(=O)c7ccc(Cl)c(N9CCC(=O)NC9=O)c7)CC8)CC6)CC5)nc4c3F)c12 [Example 57, 1-(5-(9-((4-((1-(((4-(3,8-diazabicyclo[3.2.1]octan-3-yl)-7-(8-ethynyl-3-hydroxynaphthalen-1-yl)-8-fluoropyrido[4,3-d]pyrimidin-2-yl)oxy)methyl)cyclopropyl)methyl)piperazin-1-yl)methyl)-3-azaspiro [5.5]undecane-3-carbonyl)-2-chlorophenyl)dihydropyrimidine-2,4(1H,3H)-dione]",–,≤ 0.05,≤ 0.05,≤ 0.05,–,–,–
"C#Cc1c(F)ccc2cc(O)cc(-c3ncc4c(N5CC6CCC(C5)N6)nc(OCC(C)CN5CCN(CC6CCC7(CC6)CCN(C(=O)c6ccc(OC)c(N8CCC(=O)NC8=O)c6)CC7)CC5)nc4c3F)c12 (stereo not shown) [Example 84, 1-(5-(9-((4-(3-((4-(3,8-diazabicyclo[3.2.1]octan-3-yl)-7-(8-ethynyl-7-fluoro-3-hydroxynaphthalen-1-yl)-8-fluoropyrido[4,3-d]pyrimidin-2-yl)oxy)-2-methylpropyl)piperazin-1-yl)methyl)-3-azaspiro[5.5]undecane-3-carbonyl)-2-methoxyphenyl)dihydropyrimidine-2,4(1H,3H)-dione]",–,–,–,–,0.00105,0.0065,0.00247
"C#Cc1c(F)ccc2cc(O)cc(-c3ncc4c(N5CC6CCC(C5)N6)nc(OCC5(CN6CCN(CC7CCC8(CC7)CCN(C(=O)c7ccc(OC)c(N9CCC(=O)NC9=O)c7)CC8)CC6)CCC5)nc4c3F)c12 [Example 25, 1-(5-(9-((4-((1-(((4-(3,8-diazabicyclo[3.2.1]octan-3-yl)-7-(8-ethynyl-7-fluoro-3-hydroxynaphthalen-1-yl)-8-fluoropyrido[4,3-d]pyrimidin-2-yl)oxy)methyl)cyclobutyl)methyl)piperazin-1-yl)methyl)-3-azaspiro[5.5]undecane-3-carbonyl)-2-methoxyphenyl)dihydropyrimidine-2,4(1H,3H)-dione]",0.1 to 0.5,–,0.1 to 0.5,≤ 0.05,–,–,–
